Test results from patent publication US4324801A, “Phenylguanidine acetylsalicylate compounds, process for production thereof, and pharmaceutical composition thereof” (Banyu Pharmaceutical Co. Ltd., priority 1981, dated 1982).
≈ marks a conversion by molar mass, not a printed value. Like-named read-outs stand apart in the source and are kept apart here.

Legend:
guinea pigs = assay: Anti-inflammatory activity (ultraviolet irradiation on the back of guinea pigs); assay type: in vivo, guinea pig (male)
Text: Male guinea pigs having a body weight of about 350 g were used. The back hair of each guinea pig was removed, and ultraviolet light was irradiated onto the back.

rats = assay: Antipyretic activity (peptone-induced rise in rectal temperature); assay type: in vivo, rat (male); conditions: against the control, oral, 200 mg/kg, rat; 5% peponte s.c. (0.5 ml/100 g)
Text: Male rats having a body weight of 200 to 250 g were used.
^(*) Inhibiting ratio against the control in oral administration at a

[1] = system: platelet aggregation in rabbit's platelet-rich plasma (PRP); assay: cells; assay type: cell-based; conditions: collagen as aggregation inducer; for IC50: Oryctolagus cuniculus, Platelet, read-out: IC50 (final concentration at 50% inhibition of platelet aggregation)
Experimental: This was measured by the method of Born et al. Specifically, using collagen as an aggregation inducer, each of the compounds shown in Table 1 was tested to measure the inhibition of platelet aggregation in rabbit's platelet-rich plasma (PRP). Aspirin and mefenamic acid were used as controls.
^(*) Final concentration at 50% inhibition of platelet aggregation.

prostaglandin synthesis = assay: Inhibition of prostaglandin synthesis in washed platelet suspension (malondialdehyde formation after arachidonic acid); assay type: cell-based; conditions: in vitro; for IC50: read-out: IC50 (final concentration at 50% inhibition of malondialdehyde formation)
Experimental: Each of the compounds shown in Table 1 was tested to measure the inhibition of prostaglandin synthesis in a washed platelet suspension by measuring the malondialdehyde formation following the addition of arachidonic acid in vitro.

mice [2] = conditions: oral
mice [3] = assay: Analgesic activity (acetic acid writhing method); assay type: in vivo, mouse (male); conditions: oral, intravenous, intraperitoneal, compared against aspirin and mefenamic acid, writhings counted 5 to 25 minutes after acetic acid
Experimental: The analgesic activity was tested by the acetic acid writhing method. Male mice having a body weight of 18 to 20 g were used. Each of the compounds shown in Table 1 was administered orally, intravenously and intraperitoneally, and then 0.2 ml of a 0.7% aqueous solution of acetic acid was administered intraperitoneally 60 minutes (in oral administration), 10 minutes (in intravenous administration), and 15 minutes (in intraperitoneal administration) after the administration of the test compounds.

in vivo = conditions: mouse, po
[4] = oral, one hour before UV irradiation, guinea pigs

Q: With “2-methylphenylguanidine acetylsalicylate [Compound 2]” as the compound, how does the ED50 (guinea pigs; [4]) read?
A: The ED50 was 65 mg/kg.

Q: What about the Inhibiting ratio (rats) of the same compound?
A: Its Inhibiting ratio is 88.1%.

Q: What about the “IC50 (final concentration at 50% inhibition of platelet aggregation)” value [1] of the same compound?
A: Its value is 10.5 µg/mL.

Q: And the “IC50 (final concentration at 50% inhibition of malondialdehyde formation)” value (prostaglandin synthesis)?
A: The value was 3.4 µg/mL.

Q: What about the LD50 (mice [2]) of the same compound?
A: The LD50 was 400 mg/kg.

Q: With “3,4-dimethylphenylguanidine acetylsalicylate [Compound 5]” as the compound, how does the ED50 (guinea pigs; [4]) read?
A: The ED50 was 85 mg/kg.

Q: And the analgesic activity (mice [3])?
A: The analgesic activity was “a marked analgesic activity”.

Q: What about the “IC50 (final concentration at 50% inhibition of platelet aggregation)” value [1] of the same compound?
A: The value was 2.0 µg/mL.

Q: What about the “IC50 (final concentration at 50% inhibition of malondialdehyde formation)” value (prostaglandin synthesis) of the same compound?
A: Its value is 4.8 µg/mL.

Q: For “3-Hydroxy-4-carboethoxyphenylguanidine acetylsalicylate [Compound 17]”, which LD50 (mice [2]) is on record?
A: The LD50 was 1100 mg/kg.

Q: For “3-methylphenylguanidine acetylsalicylate [Compound 3]”, which ED50 (guinea pigs; [4]) is on record?
A: Its ED50 is 110 mg/kg.

Q: And the Inhibiting ratio (rats)?
A: Its Inhibiting ratio is 28.0%.

Q: What about the “IC50 (final concentration at 50% inhibition of platelet aggregation)” value [1] of the same compound?
A: Its value is 7.0 µg/mL.

Q: And the “IC50 (final concentration at 50% inhibition of malondialdehyde formation)” value (prostaglandin synthesis)?
A: Its value is 3.7 µg/mL.

Q: And the LD50 (mice [2])?
A: The LD50 was 400 mg/kg.

Q: With “4-Carbamoylphenylguanidine acetylsalicylate [Compound 16]” as the compound, how does the ED50 (guinea pigs; [4]) read?
A: Its ED50 is 200 mg/kg.

Q: And the Inhibiting ratio (rats)?
A: Its Inhibiting ratio is 72.0%.

Q: And the “IC50 (final concentration at 50% inhibition of platelet aggregation)” value [1]?
A: The value was 12.5 µg/mL.

Q: What about the “IC50 (final concentration at 50% inhibition of malondialdehyde formation)” value (prostaglandin synthesis) of the same compound?
A: The value was 4.5 µg/mL.

Q: And the LD50 (mice [2])?
A: The LD50 was 1600 mg/kg.

Q: What does the source list for “4-Methoxyphenylguanidine acetylsalicylate [Compound 11]”?
A: ED50 (guinea pigs; [4]): 95 mg/kg; Inhibiting ratio (rats): 25.2%; IC50 (final concentration at 50% inhibition of platelet aggregation) [1]: 9.6 µg/mL; IC50 (final concentration at 50% inhibition of malondialdehyde formation) (prostaglandin synthesis): 3.3 µg/mL; LD50 (mice [2]): 300 mg/kg

Q: Which ED50 (guinea pigs; [4]) does the source give for “4-ethoxyphenylguanidine acetylsalicylate [Compound 13]” here?
A: The ED50 was 85 mg/kg.

Q: And the Inhibiting ratio (rats)?
A: The Inhibiting ratio was 62.9%.

Q: And the “IC50 (final concentration at 50% inhibition of platelet aggregation)” value [1]?
A: Its value is 12.2 µg/mL.

Q: What about the “IC50 (final concentration at 50% inhibition of malondialdehyde formation)” value (prostaglandin synthesis) of the same compound?
A: Its value is 4.0 µg/mL.

Q: And the LD50 (mice [2])?
A: The LD50 was 600 mg/kg.

Q: With “4-methylphenylguanidine acetylsalicylate [Compound 4]” as the compound, how does the ED50 (guinea pigs; [4]) read?
A: The ED50 was 90 mg/kg.

Q: And the Inhibiting ratio (rats)?
A: Its Inhibiting ratio is 83.9%.

Q: And the “IC50 (final concentration at 50% inhibition of platelet aggregation)” value [1]?
A: Its value is 4.5 µg/mL.

Q: What about the “IC50 (final concentration at 50% inhibition of malondialdehyde formation)” value (prostaglandin synthesis) of the same compound?
A: Its value is 2.4 µg/mL.

Q: What about the LD50 (mice [2]) of the same compound?
A: Its LD50 is 600 mg/kg.

Q: For CC(=O)Oc1ccccc1C(=O)O [Aspirin, acetylsalicylic acid, reference compound], which ED50 (guinea pigs; Cavia porcellus, light or radiation study, po, 1 h) is on record?
A: Its ED50 is 90 mg/kg.

Q: And the Inhibiting ratio (rats)?
A: The Inhibiting ratio was 81.0%.

Q: What about the IC50 [1] of the same compound?
A: The IC50 was 12.6 µg/mL (≈ 69.9 µM).

Q: What about the IC50 (prostaglandin synthesis) of the same compound?
A: The IC50 was 2.4 µg/mL (≈ 13.3 µM).

Q: And the LD50 (in vivo)?
A: The LD50 was 950 mg/kg.

Q: Which ED50 (guinea pigs; [4]) does the source give for CC(=O)Oc1ccccc1C(=O)O.N=C(N)Nc1ccccc1 [Compound 1] here?
A: The ED50 was 140 mg/kg.

Q: And the Inhibiting ratio (rats)?
A: Its Inhibiting ratio is 74.1%.

Q: What about the “IC50 (final concentration at 50% inhibition of platelet aggregation)” value [1] of the same compound?
A: Its value is 6.0 µg/mL.

Q: And the “IC50 (final concentration at 50% inhibition of malondialdehyde formation)” value (prostaglandin synthesis)?
A: The value was 4.3 µg/mL.

Q: What about the LD50 (mice [2]) of the same compound?
A: Its LD50 is 400 mg/kg.

Q: For Cc1cccc(Nc2ccccc2C(=O)O)c1C [Mefenamic acid, reference compound], which ED50 (guinea pigs; Cavia porcellus, light or radiation study, 1 h, oral, one hour before UV irradiation, guinea pigs, read-out: ED50) is on record?
A: Its ED50 is 30 mg/kg.

Q: And the IC50 [1]?
A: Its IC50 is over 20 µg/mL.

Q: What about the IC50 (prostaglandin synthesis) of the same compound?
A: The IC50 was 1.4 µg/mL (≈ 5.8 µM).
